Assay results from PubChem BioAssay AID1250 (SRMLSC, 2008).
The source made the active and inactive calls.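 Rule for the calls: active = inhibition of at least 30% at one or more tested concentrations; inactive = inhibition below 30% at every dose.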

Assay: inhibitors of Bluetongue virus cytopathic effect, confirmation, arbovirus, BSR cells (AID 1250)
Conditions: BSR cells, Bluetongue virus CPE, ATP luminescence, 72 h; at 20 µM (top of the series)

Structure (SMILES) | CPE inhibition
Cc1noc(C)c1C(=O)OCC(=O)Nc1cc(Cl)ccc1Oc1ccccc1 | 22.6% (inactive)
CCCS(=O)(=O)n1nc(-c2ccc(OC)cc2OC)cc1N | -1.58% (inactive)
OC(CNCC1(N2CCCCC2)CCCCC1)COc1ccc(Cl)cc1Cl (centres undefined) | 11.6% (inactive)
COC(=O)c1c(-c2ccccc2)csc1N1C(=O)Nc2ccccc2N1O | 10.9% (inactive)
CC(C)(CO)CNC(=O)CC1C(=O)NCCN1CC(c1ccccc1)c1ccccc1 (centres undefined) | 1.48% (inactive)
CCCc1c(OCCCCc2nn[nH]n2)ccc(C(C)=O)c1O | 12.8% (inactive)
Cc1cccc(C)c1Nc1nnc(SC/C(O)=C(\C#N)c2nc3ccccc3[nH]2)s1 | 16.8% (inactive)
CC(C)C(=O)Nc1nnc(SCC(=O)N2c3ccccc3CC2C)s1 (centres undefined) | 11.5% (inactive)
COC(=O)C1=C(C)N(Cc2ccco2)C(=O)N[C@@H]1c1cccc(C(F)(F)F)c1 | 21.6% (inactive)
Oc1ccccc1CN1CCCN(Cc2ccccc2O)C1 | 2.17% (inactive)
O=C(O)c1ccccc1N/N=C\c1ccnc2ccccc12 | 12.3% (inactive)
Oc1ccc(F)cc1-c1cc(-c2ccc3c(c2)OCCO3)n[nH]1 | 7.86% (inactive)
O=C/C(=C\Nc1ccc(Cl)cn1)c1nc2cc(Cl)ccc2o1 | 10.2% (inactive)
O=C(c1coc(=O)c(Br)c1)N1CCCc2ccccc21 | 4.27% (inactive)
CCc1ccc(N2CCN(C(=O)c3ccc(OC)c(OC)c3)CC2)cc1 | 7.4% (inactive)
Fc1ccc2nc(Nc3nc4c(F)cccc4s3)sc2c1 | 20.9% (inactive)
COCCn1c(-c2ccccc2Cl)nc2c(c(=O)c3ccccc3n2C)c1=O | 4.39% (inactive)
O=C(Nc1c(-c2ccccc2)nc2ccccn12)c1cccs1 | 20.6% (inactive)
COC(=O)c1ccccc1NC(=O)CN1CCC(n2nnc3cc(C(F)(F)F)ccc32)CC1 | 16.3% (inactive)
COc1cccc(C2=CC(c3ccc(N(C)C)cc3)n3ncnc3N2)c1 (centres undefined) | 8.59% (inactive)
CC(=O)Nc1ccc(SCC(=O)N(CCC#N)c2cc(C)cc(C)c2)cc1 | 18% (inactive)
COc1ccc(-c2nnc(-c3ccc(Br)o3)o2)cc1OC | 14.5% (inactive)
COCCCNc1nc(-c2ccncc2)nc2ccccc12 | 7.45% (inactive)
c1ccc(CSc2ccc(-c3cccnc3)nn2)nc1 | 0.68% (inactive)
Cc1ccc(S(=O)(=O)CCSc2cccc(C(=O)Nc3ccccc3C(=O)O)c2)cc1 | 28.2% (inactive)

Structure (SMILES) | CPE inhibition
COc1ccc(OC)c(NC(=O)c2cc(-c3ccc(C)cc3O)n[nH]2)c1 | 9.4% (inactive)
O=C(O)/C(=C\c1ccc(-c2ccc(F)cc2)o1)c1ccccc1 | 24.5% (inactive)
CCOC(=O)N1CCC(Nc2c(Nc3cccc(CC)c3)c(=O)c2=O)CC1 | 9.52% (inactive)
CCOC(=O)c1c(NC(=O)CSc2ccccc2C(=O)O)sc(C)c1C | 19.3% (inactive)
O=C(Nc1ccccc1C(=O)O)c1ccc2ccccc2n1 | 16.2% (inactive)
COc1ccc(S(=O)(=O)N/N=C(/C)c2cccc(NC(=O)c3ccccc3Cl)c2)cc1 | 15% (inactive)
O=C(O)C(Cc1ccccc1)N=Cc1c(O)c2ccccc2oc1=O (centres undefined) | 7.31% (inactive)
O=c1oc(/C=C/c2ccco2)nc2sc3c(c12)CCC3 | 21.9% (inactive)
Cc1nc(NS(=O)(=O)c2ccccc2C)c2c3c(sc2n1)CCC3 | 27.6% (inactive)
O=C(CSc1ncn(-c2ccccc2)n1)Nc1nc2ccccc2s1 | 10.5% (inactive)
Cc1ccc(-n2cccc2/C=C2\C(=N)N3N=C(C(C)C)SC3=NC2=O)cc1 | 25.2% (inactive)
C=CCn1c(N)c(C(=O)NCc2cccnc2)sc1=S | 2.55% (inactive)
C=CCOc1ccc(Br)cc1/C=C1/SC(=Nc2ccc(C(=O)O)cc2)NC1=O | 10.2% (inactive)
C(=N\Nc1nc(-c2ccccc2)cs1)/c1ccco1 | 20.9% (inactive)
Cc1ccc(N2CN=c3s/c(=C\c4ccccn4)c(=O)n3C2)cc1 | -1.84% (inactive)
CN(Cc1ccccc1)c1nc(N)c([N+](=O)[O-])c(NCc2ccccc2)n1 | -7.95% (inactive)
CSC1=NSC2=NC(=O)/C(=C\c3cccs3)C(=N)N12 | 16% (inactive)
CCc1nnc(NS(=O)(=O)c2ccc(NC(=O)COc3ccc4ccccc4c3)cc2)s1 | 25.7% (inactive)
N#Cc1c(C(F)(F)F)cc(-c2ccc(Cl)cc2)[nH]c1=O | 25.9% (inactive)
O=c1c(Cl)c(N2CCN(c3ccc(F)cc3)CC2)cnn1C12CC3CC(CC(C3)C1)C2 | -3.76% (inactive)
Cc1ccc(NC(=O)COc2ccc(Br)cc2CO)cc1 | 10.5% (inactive)
CC1CCN(C2=NC(=O)/C(=C/c3cn[nH]c3-c3ccccc3)S2)CC1 | -2.7% (inactive)
Cc1c(Cl)cccc1NC(=O)c1cc(-c2ccccc2O)n[nH]1 | 17.9% (inactive)
COc1ccc2[nH]c(=O)c(CN(CCCN(C)C)C(=O)Nc3ccc(F)cc3)cc2c1 | 7.66% (inactive)
